Consider 35 compounds from ChEMBL document CHEMBL1759972, “Phenoxyacetic acids as PPARδ partial agonists: synthesis, optimization, and in vivo efficacy” (Bioorg Med Chem Lett, 2011).

A word on the EC50: it is the concentration at which the effect is half-maximal. A high value points to a need for much substance. For orientation: IC50 means the point on the concentration scale where inhibition reaches its midpoint.

Assay [1] has as its target T1, Peroxisome proliferator-activated receptor delta (Homo sapiens, UniProt Q03181).
T1 sequence (Q03181 whole entry): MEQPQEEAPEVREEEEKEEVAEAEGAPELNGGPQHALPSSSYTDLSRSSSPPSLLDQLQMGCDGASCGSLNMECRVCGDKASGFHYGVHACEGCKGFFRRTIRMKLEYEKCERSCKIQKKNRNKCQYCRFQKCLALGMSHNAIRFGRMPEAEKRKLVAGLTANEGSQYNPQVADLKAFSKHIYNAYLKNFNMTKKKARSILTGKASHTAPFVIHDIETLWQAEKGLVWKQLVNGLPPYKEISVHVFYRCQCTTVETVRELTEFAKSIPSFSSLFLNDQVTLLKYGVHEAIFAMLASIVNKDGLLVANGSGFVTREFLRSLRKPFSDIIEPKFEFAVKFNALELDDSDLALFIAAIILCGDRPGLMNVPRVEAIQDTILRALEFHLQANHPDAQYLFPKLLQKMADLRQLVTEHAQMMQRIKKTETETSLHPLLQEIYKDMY
Description: Partial agonist activity at human PPARdelta expressed in african green monkey CV1 cells transfected with Gal4 assessed as beta-galactosidase activity by transactivation assay

Assay [2] has as its target T1, Peroxisome proliferator-activated receptor delta. The source holds these as a separate data set.
Description: Displacement of [3H]GW 2433 from human PPARdelta by scintillation proximity assay
For assay [3], the target named is T2, Peroxisome proliferator-activated receptor alpha (Homo sapiens, UniProt Q07869).
T2 sequence (Q07869 whole entry): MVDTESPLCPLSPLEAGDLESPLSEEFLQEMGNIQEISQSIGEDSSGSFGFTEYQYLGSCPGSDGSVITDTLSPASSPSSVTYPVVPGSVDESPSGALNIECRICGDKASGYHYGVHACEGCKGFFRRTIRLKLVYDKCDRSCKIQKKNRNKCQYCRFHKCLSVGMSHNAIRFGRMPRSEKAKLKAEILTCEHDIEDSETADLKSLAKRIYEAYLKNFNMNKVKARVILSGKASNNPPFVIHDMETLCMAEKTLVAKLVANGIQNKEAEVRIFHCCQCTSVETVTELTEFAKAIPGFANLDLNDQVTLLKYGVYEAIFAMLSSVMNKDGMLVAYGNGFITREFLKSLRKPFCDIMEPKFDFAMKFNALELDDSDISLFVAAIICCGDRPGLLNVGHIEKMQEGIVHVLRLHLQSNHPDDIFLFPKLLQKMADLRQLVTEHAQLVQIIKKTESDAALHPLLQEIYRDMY
The experiment in a line: Displacement of [3H]GW 2433 from human PPARalpha by scintillation proximity assay.

The target of assay [4] is T3, Peroxisome proliferator-activated receptor gamma (Homo sapiens, UniProt P37231).
T3 sequence (P37231 whole entry): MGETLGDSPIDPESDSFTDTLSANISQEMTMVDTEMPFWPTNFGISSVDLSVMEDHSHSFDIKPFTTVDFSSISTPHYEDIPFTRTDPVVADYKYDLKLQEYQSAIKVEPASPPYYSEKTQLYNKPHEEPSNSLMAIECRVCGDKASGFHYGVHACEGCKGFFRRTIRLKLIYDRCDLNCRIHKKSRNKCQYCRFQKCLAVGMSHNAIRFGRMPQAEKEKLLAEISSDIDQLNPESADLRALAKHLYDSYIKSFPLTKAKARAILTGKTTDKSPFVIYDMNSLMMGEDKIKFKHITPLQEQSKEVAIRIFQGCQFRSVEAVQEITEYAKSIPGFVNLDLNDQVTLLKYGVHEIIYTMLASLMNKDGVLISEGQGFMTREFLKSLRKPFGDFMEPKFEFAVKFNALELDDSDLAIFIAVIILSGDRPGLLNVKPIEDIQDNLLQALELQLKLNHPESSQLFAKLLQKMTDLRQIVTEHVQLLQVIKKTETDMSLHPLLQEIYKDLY
Description: Displacement of [3H]GW 2433 from human PPARgamma by scintillation proximity assay

`CCCCN(c1cccc(-c2ccc(Cl)cc2)c1C)S(=O)(=O)c1ccc(OC(C)C(=O)O)c(F)c1Cl` (stereo not given) had an EC50 in assay [1] of 398 nM. Also, the IC50 in assay [2] was 251 nM; in assay [3], 12.6 µM.
Take `CCCCN(c1cccc(-c2ccc(Cl)cc2)c1Cl)S(=O)(=O)c1ccc(OC(C)C(=O)O)c(C)c1C` (stereo not given): the EC50 in assay [1] was 10 nM. Moreover, the IC50 is 7.94 nM in assay [2] and 12.6 µM in assay [3].
Take `CCCCN(c1c(C)cc(C)c(-c2ccc(Cl)cc2)c1C)S(=O)(=O)c1ccc(OC(C)C(=O)O)c(C)c1C` (stereo not given): in assay [1], the EC50 is greater than 10000 nM. Moreover, the IC50 in assay [4] was 7.94 µM; in assay [2], 10000 nM; in assay [3] it was 20 µM.
The compound `CCCCN(c1cccc(-c2ccc(Cl)cc2)c1OC)S(=O)(=O)c1ccc(OC(C)C(=O)O)c(C)c1C` (stereo not given) had an EC50 in assay [1] of 20 nM. In addition, the IC50 in assay [2] was 25.1 nM; in assay [3], 12.6 µM.
Regarding `CCCCN(c1cc(-c2ccc(Cl)cc2)ccc1C)S(=O)(=O)c1ccc(OC(C)C(=O)O)c(C)c1C` (stereo not given), the EC50 in assay [1] is 794 nM. Also, the figures for the IC50 in assay [4], in assay [2] and in assay [3] were 6.31 µM, 1580 nM and 10 µM, respectively.
In assay [1], `CCCCN(c1cc(-c2ccc(Cl)cc2)ccc1OC(F)(F)F)S(=O)(=O)c1ccc(OC(C)C(=O)O)c(C)c1C` (stereo not given) had an EC50 of 1000 nM. Further, the IC50 in assay [4] is 10 µM; in assay [2], 3160 nM; in assay [3], 12.6 µM.
In assay [1], `CCCCN(c1cccc(-c2ccc(Cl)c(Cl)c2)c1C)S(=O)(=O)c1ccc(OC(C)C(=O)O)c(C)c1C` (stereo not given) gave an EC50 of 126 nM. For the same compound, the IC50 in assay [2] is 126 nM; in assay [3], 20 µM.
In assay [1], `COCCN(c1cccc(-c2ccc(Cl)cc2)c1C)S(=O)(=O)c1ccc(OC(C)C(=O)O)c(C)c1C` (stereo not given) had an EC50 of 501 nM. The IC50 in assay [2] was 501 nM; in assay [3] it was greater than 20 µM.
Regarding `CCCCN(c1cc(-c2ccc(Cl)cc2)c(F)cc1F)S(=O)(=O)c1ccc(OC(C)C(=O)O)c(C)c1C` (stereo not given), in assay [1], the EC50 is 1260 nM. In addition, the values for the IC50 in assay [4], in assay [2] and in assay [3] were 1.58 µM, 3160 nM and 10 µM, respectively.
`CCCCN(c1cccc(-c2ccc(Cl)cc2)c1C)S(=O)(=O)c1ccc(OC(C)C(=O)O)c(Cl)c1Cl` (stereo not given) had an EC50 in assay [1] of 63.1 nM. The IC50 in assay [2] is 79.4 nM; in assay [3] it was 10 µM.
On to `CCCCN(c1cccc(-c2ccc(Cl)cc2)c1C)S(=O)(=O)c1ccc(OC(C)C(=O)O)c(OC)c1Cl` (stereo not given), for which, in assay [1], a half-maximal effect (EC50) was put at 316 nM. Also, the IC50 in assay [2] is 158 nM; in assay [3], 15.8 µM.
`CCCCN(c1cc(-c2ccc(Cl)cc2)cc(C(F)(F)F)c1)S(=O)(=O)c1ccc(OC(C)C(=O)O)c(C)c1C` (stereo not given): the EC50 in assay [1] is 100 nM. For the same compound, the values for the IC50 in assay [4], in assay [2] and in assay [3] were 5.01 µM, 63.1 nM and 12.6 µM, respectively.
Taken in the same sequence, the figures for `CCCCN(c1ccc(C)c(-c2ccc(Cl)cc2)c1)S(=O)(=O)c1ccc(OC(C)C(=O)O)c(C)c1C` (stereo not given) were 126 nM, 3.16 µM, 398 nM and 20 µM.
`CCCCN(c1cccc(-c2ccc(Cl)cc2)c1C)S(=O)(=O)c1ccc(OC(C)C(=O)O)c(OC)c1OC` (stereo not given) had an EC50 in assay [1] greater than 10000 nM. Besides, the IC50 is 5010 nM in assay [2] and greater than 25.1 µM in assay [3].
As for `CCCCN(c1cccc(-c2ccc(C(F)(F)F)cc2)c1C)S(=O)(=O)c1ccc(OC(C)C(=O)O)c(C)c1C` (stereo not given), the IC50 in assay [2] is 15.8 nM; in assay [3], 15.8 µM.
Compound `Cc1c(-c2ccc(Cl)cc2)cccc1N(CCCC(F)(F)F)S(=O)(=O)c1ccc(OC(C)C(=O)O)c(C)c1C` (stereo not given) showed an EC50 in assay [1] of 2000 nM. In addition, the IC50 in assay [2] was 1260 nM; in assay [3], 20 µM.
For `CCCCN(c1cccc(-c2ccc(Cl)cc2)c1C)S(=O)(=O)c1ccc(OC(C)C(=O)O)c(C2CCCCC2)c1` (stereo not given), in assay [1], the response was half-maximal at 15.8 nM (EC50). Besides, the values for the IC50 in assay [4], in assay [2] and in assay [3] were 7.94 µM, 15.8 nM and 15.8 µM, respectively.
With `CCCCC(Oc1ccc(S(=O)(=O)N(CCCC)c2cccc(-c3ccc(Cl)cc3)c2C)c(C)c1C)C(=O)O` (stereo not given), in assay [1], the EC50 is greater than 10000 nM. Moreover, the IC50 in assay [2] was 158 nM; in assay [3], 10 µM.
For `CCCCN(c1cccc(-c2ccc(Cl)cc2)c1C)S(=O)(=O)c1ccc(OC(CCC)C(=O)O)c(C)c1C` (stereo not given), the EC50 in assay [1] was greater than 10000 nM. The IC50 is 158 nM in assay [2] and 10 µM in assay [3].
Taken in the same sequence, the figures for `Cc1c(-c2ccc(Cl)cc2)cccc1N(CC1CCC1)S(=O)(=O)c1ccc(OC(C)C(=O)O)c(C)c1C` (stereo not given) were 501 nM, 1000 nM and 12.6 µM.
For the compound `CCCCN(c1cc(-c2ccc(Cl)cc2)c(F)cc1C)S(=O)(=O)c1ccc(OC(C)C(=O)O)c(C)c1C` (stereo not given), the EC50 in assay [1] is 3160 nM. In addition, the IC50 is 7.94 µM in assay [4], 5010 nM in assay [2] and 10 µM in assay [3].
Turning to `CCCCN(c1cccc(-c2ccc(Cl)cc2)c1C)S(=O)(=O)c1ccc(OCC(=O)O)c(C)c1C`, the EC50 in assay [1] was 2 nM. The IC50 in assay [4] is 2.51 µM; in assay [2], 12.6 nM; in assay [3] it was 6.31 µM.
In the case of `CCCCN(c1cccc(-c2ccc(Cl)cc2)c1C)S(=O)(=O)c1ccc(O[C@@H](C)C(=O)O)c(C)c1C`, in assay [1], the EC50 was 316 nM. Besides, the values for the IC50 in assay [2] and in assay [3] were 631 nM and 15.8 µM, respectively.
For `CCCCN(c1cccc(-c2ccc(OC)cc2)c1C)S(=O)(=O)c1ccc(OC(C)C(=O)O)c(C)c1C` (stereo not given), the response in assay [1] was half-maximal at 39.8 nM (EC50). Also, the IC50 was 100 nM in assay [2] and 15.8 µM in assay [3].
For `CCCCCN(c1cccc(-c2ccc(Cl)cc2)c1C)S(=O)(=O)c1ccc(OC(C)C(=O)O)c(C)c1C` (stereo not given), a half-maximal response in assay [1] (EC50) required 398 nM. Besides, the IC50 in assay [2] was 794 nM; in assay [3], 15.8 µM.
Consider `CCCCN(c1cccc(-c2ccc(Cl)cc2)c1C)S(=O)(=O)c1ccc(OC(CC)C(=O)O)c(C)c1C` (stereo not given), for which a half-maximal response in assay [1] (EC50) required 126 nM. Also, the IC50 in assay [2] was 63.1 nM; in assay [3], 15.8 µM.
In assay [1], `CCCCN(c1cccc(-c2ccc(Cl)cc2)c1C)S(=O)(=O)c1ccc(O[C@H](C)C(=O)O)c(C)c1C` showed an EC50 of 12.6 nM. In addition, the IC50 is 25.1 nM in assay [2] and 20 µM in assay [3].
`CCCCN(c1cccc(-c2cccc(Cl)c2)c1C)S(=O)(=O)c1ccc(OC(C)C(=O)O)c(C)c1C` (stereo not given): the EC50 in assay [1] is 501 nM. The IC50 was 631 nM in assay [2] and 7.94 µM in assay [3].
As to `Cc1c(-c2ccc(Cl)cc2)cccc1N(CC1CC1)S(=O)(=O)c1ccc(OC(C)C(=O)O)c(C)c1C` (stereo not given), in assay [1], it took 794 nM to reach a half-maximal effect (EC50). Further, the IC50 in assay [2] is 794 nM; in assay [3] it was 15.8 µM.
In the case of `CCCCN(c1cccc(-c2ccc(Cl)cc2)c1C)S(=O)(=O)c1ccc(OC(C)C(=O)O)c(F)c1F` (stereo not given), the values for the IC50 in assay [2] and in assay [3] were 631 nM and 10 µM, respectively.
Regarding `CCCCN(c1cccc(-c2ccc(Cl)cc2)c1C)S(=O)(=O)c1ccc(OC(C)C(=O)O)c(F)c1OC` (stereo not given), in assay [3], the IC50 was 15.8 µM.
In the case of `CCCCN(c1cccc(-c2ccc(OC(F)(F)F)cc2)c1C)S(=O)(=O)c1ccc(OC(C)C(=O)O)c(C)c1C` (stereo not given), the EC50 in assay [1] is 39.8 nM. In addition, the IC50 in assay [2] is 79.4 nM; in assay [3], 10 µM.
Taken in the same sequence, the figures for `CCCCN(c1cccc(-c2ccc(C)cc2)c1C)S(=O)(=O)c1ccc(OC(C)C(=O)O)c(C)c1C` (stereo not given) were 31.6 nM, 79.4 nM and 15.8 µM.
On to `CCCN(c1cccc(-c2ccc(Cl)cc2)c1C)S(=O)(=O)c1ccc(OC(C)C(=O)O)c(C)c1C` (stereo not given), for which the EC50 in assay [1] is 79.4 nM. Besides, the IC50 in assay [2] was 126 nM; in assay [3], 20 µM.
`CCCCN(c1cccc(-c2ccccc2Cl)c1C)S(=O)(=O)c1ccc(OC(C)C(=O)O)c(C)c1C` (stereo not given) gave an EC50 in assay [1] of 2000 nM. Moreover, the results for the IC50 in assay [2] and in assay [3] were 1580 nM and 12.6 µM, respectively.
